Reference: ChEMBL document CHEMBL3217459, “3-Diarylethyne quinazolinones: a new class of senescence inducers” (Medchemcomm, 2013)
Calls of active or inactive are those of the source. No cut-off for these calls is given here.

Experiments:
MCF7 [1] = assay: Cell cycle arrest in human MCF7 cells assessed as accumulation at S phase at 4 uM after 24 hrs using propidium iodide staining by FACS analysis (reference value: 11%); type: functional
A549 = assay: Cytotoxicity against human A549 cells assessed as cell viability after 48 hrs by MTT assay; type: functional, cell-based; settings: A549, 48 h
[2] = Cytotoxicity against human MCF10A cells assessed as cell viability after 48 hrs by MTT assay; type: cell-based; settings: MCF-10A
MCF7 [3] = assay: Induction of senescence in human MCF7 cells assessed as increase in p16 expression at 4 uM after 24 hrs by Western blot analysis; type: functional, cell-based
MCF7 [4] = assay: Induction of senescence in human MCF7 cells assessed as blue colotation and adopted a flattened morphology with spread out cytoplasm at 4 uM after 72 hrs by SA-beta-gal assay; type: functional, cell-based
MCF7 [5] = assay: Induction of DNA damage in human MCF7 cells assessed as increase in POT1 level measured at 4 uM after 24 hrs by Western blot analysis; type: functional, cell-based
MCF7 [6] = assay: Induction of DNA damage in human MCF7 cells assessed as increase in gamma H2AX level measured at 4 uM after 24 hrs by Western blot analysis; type: functional, cell-based
MCF7 [7] = assay: Induction of senescence in human MCF7 cells assessed as increase in p53 expression at 4 uM after 24 hrs by Western blot analysis; type: functional, cell-based
MCF7 [8] = assay: Cell cycle arrest in human MCF7 cells assessed as accumulation at G2/M phase at 4 uM after 24 hrs using propidium iodide staining by FACS analysis (reference value: 19%); type: functional
MCF7 [9] = assay: Cytotoxicity against human MCF7 cells assessed as cell viability after 48 hrs by MTT assay; type: functional, cell-based; settings: MCF7, 48 h
SW116 = assay: Induction of senescence in human SW116 cells assessed as increase in p21 expression at 4 uM after 24 hrs by Western blot analysis; type: functional, cell-based
MCF7 [10] = assay: Cytotoxicity against human MCF7 cells assessed as cell viability at 2 uM after 48 hrs by MTT assay; type: functional
MDA-MB-231 [11] = assay: Cytotoxicity against human MDA-MB-231 cells assessed as cell viability after 48 hrs by MTT assay; type: functional, cell-based; settings: MDA-MB-231, 48 h
MCF7 [12] = assay: Induction of senescence in human MCF7 cells assessed as increase in p21 expression at 4 uM after 24 hrs by Western blot analysis; type: functional, cell-based
HCT-116 [13] = assay: Induction of senescence in human HCT116 cells assessed as increase in p21 expression at 4 uM after 24 hrs by Western blot analysis; type: functional, cell-based
MCF7 (Homo sapiens) = assay: Induction of senescence in human MCF7 cells assessed as increase in p16 expression at 4 uM after 24 hrs by Western blot analysis
[14] = molecular target: Telomerase reverse transcriptase (Homo sapiens) (UniProt O14746); assay: Inhibition of telomerase activity in human MCF7 cells assessed as un-repairable DNA damage at 4 uM after 24 hrs; type: cell-based
Telomerase reverse transcriptase (Homo sapiens), sequence (O14746 whole entry): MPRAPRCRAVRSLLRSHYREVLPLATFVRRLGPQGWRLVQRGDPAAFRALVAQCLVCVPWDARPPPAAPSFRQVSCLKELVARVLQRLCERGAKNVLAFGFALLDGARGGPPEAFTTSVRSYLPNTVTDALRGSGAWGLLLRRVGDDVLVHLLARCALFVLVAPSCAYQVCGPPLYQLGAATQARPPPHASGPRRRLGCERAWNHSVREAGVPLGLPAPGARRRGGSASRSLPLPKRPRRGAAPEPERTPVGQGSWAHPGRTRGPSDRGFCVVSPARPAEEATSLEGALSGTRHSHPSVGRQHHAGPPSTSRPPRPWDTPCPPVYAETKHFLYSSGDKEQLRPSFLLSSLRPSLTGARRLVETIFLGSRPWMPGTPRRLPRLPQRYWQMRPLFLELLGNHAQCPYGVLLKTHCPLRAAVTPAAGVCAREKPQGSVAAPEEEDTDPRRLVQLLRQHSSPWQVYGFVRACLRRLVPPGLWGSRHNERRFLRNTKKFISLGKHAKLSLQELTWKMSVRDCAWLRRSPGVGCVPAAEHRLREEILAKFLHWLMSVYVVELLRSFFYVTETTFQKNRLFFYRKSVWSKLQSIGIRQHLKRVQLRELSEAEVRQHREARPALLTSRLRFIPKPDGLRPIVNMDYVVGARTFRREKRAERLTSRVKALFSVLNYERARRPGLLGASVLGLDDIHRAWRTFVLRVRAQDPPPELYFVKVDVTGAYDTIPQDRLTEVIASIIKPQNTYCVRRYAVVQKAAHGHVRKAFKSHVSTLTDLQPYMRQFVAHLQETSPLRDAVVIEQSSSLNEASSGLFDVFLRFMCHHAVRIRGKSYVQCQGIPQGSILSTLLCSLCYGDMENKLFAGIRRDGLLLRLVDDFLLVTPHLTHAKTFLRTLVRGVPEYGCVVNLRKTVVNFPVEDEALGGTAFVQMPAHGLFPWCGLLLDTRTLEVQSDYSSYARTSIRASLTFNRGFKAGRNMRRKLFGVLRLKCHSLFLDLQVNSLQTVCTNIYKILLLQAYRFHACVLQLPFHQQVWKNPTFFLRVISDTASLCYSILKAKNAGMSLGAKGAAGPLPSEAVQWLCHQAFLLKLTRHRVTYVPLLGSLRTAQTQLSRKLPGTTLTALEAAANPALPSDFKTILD

[15] = molecular target: Telomerase reverse transcriptase (Homo sapiens) (UniProt O14746); assay: Inhibition of telomerase activity in human A549 cells at 4 uM after 24 hrs by TRAP eze XL telomerase assay
MCF7 [16] = assay: Cytotoxicity against human MCF7 cells assessed as cell viability at 4 uM after 48 hrs by MTT assay; type: functional
[17] = Cytotoxicity against human MIAPaCa2 cells assessed as cell viability after 48 hrs by MTT assay; type: functional, cell-based; settings: MIA PaCa-2, 48 h
MCF7 [18] = assay: Induction of senescence in human MCF7 cells expressing wild type p53 at 4 uM after 24 hrs by Western blot analysis; type: functional, cell-based
MDA-MB-231 [19] = assay: Induction of senescence in human MDA-MB-231 cells expressing mutant p53 at 4 uM after 24 hrs by Western blot analysis; type: functional, cell-based
MCF7 [20] = assay: Induction of senescence in human MCF7 cells assessed as decrease in SKP2 expression at 4 uM after 24 hrs by Western blot analysis; type: functional, cell-based
COLO 205 = assay: Cytotoxicity against human COLO205 cells assessed as cell viability after 48 hrs by MTT assay; type: functional, cell-based; settings: COLO 205, 48 h
HCT-116 [21] = assay: Induction of senescence in human HCT116 cells assessed as increase in p16 expression at 4 uM after 24 hrs by Western blot analysis; type: functional, cell-based
MCF7 [22] = assay: Induction of DNA damage in human MCF7 cells assessed as decrease in TRF2 level measured at 4 uM after 24 hrs by Western blot analysis; type: functional, cell-based
MCF7 [23] = assay: Cell cycle arrest in human MCF7 cells assessed as accumulation at G1 phase at 4 uM after 24 hrs using propidium iodide staining by FACS analysis (reference value: 70%); type: functional
MCF7 [24] = assay: Induction of DNA damage in human MCF7 cells assessed as increase in TRF1 level measured at 4 uM after 24 hrs by Western blot analysis; type: functional, cell-based

SMILES	Activity (MCF7 [1])	IC50 (A549)	IC50 [2]	Activity (MCF7 [3])	Activity (MCF7 [5])	Activity (MCF7 [7])	Activity (MCF7 [8])	IC50 (MCF7 [9])	Activity (SW116)	OD (MCF7 [10])	IC50 (MDA-MB-231 [11])	Activity (MCF7 [12])	Activity (HCT-116 [13])	Activity (MCF7 (Homo sapiens))	OD (MCF7 [16])	IC50 [17]	inhibition (MCF7 [20])	IC50 (COLO 205)	Activity (HCT-116 [21])	Activity (MCF7 [23])	also measured
Cc1cc(C#Cc2ccc(C(C)(C)C)cc2)ccc1-n1c(/C=C/c2ccnc3ccccc23)nc2ccccc2c1=O	2%	5.87 µM	28 µM	Active	Active	Active	4%	2.45 µM	Active	0.59	5.44 µM	Active	Active	Active	0.24	5.21 µM	Active	5.44 µM	Active	94%	Activity (MCF7 [4]): Active; Activity (MCF7 [6]): Active; inhibition [14]: Active; inhibition [15]: Active; Activity (MCF7 [18]): Active; Activity (MDA-MB-231 [19]): inactive; inhibition (MCF7 [22]): Active; Activity (MCF7 [24]): Active
COc1cc(/C=C/c2nc3ccccc3c(=O)n2-c2ccc(C#Cc3ccccc3)cc2C)cc(OC)c1OC	5%	6.54 µM	8 µM	Active	Active	Active	5%	2.46 µM	Active	0.47	5.56 µM	Active	Active	Active	0.27	6.01 µM	Active	6.24 µM	Active	90%	Activity (MCF7 [6]): Active; inhibition [14]: Active; inhibition (MCF7 [22]): Active; Activity (MCF7 [24]): Active
COc1ccc(/C=C/c2nc3ccccc3c(=O)n2-c2ccc(C#Cc3ccc(C(C)(C)C)cc3)cc2C)cc1OC	3%	6.15 µM	13 µM	Active	Active	Active	6%	2.72 µM	Active	0.41	5.84 µM	Active	Active	Active	0.27	5.89 µM	Active	5.68 µM	Active	91%	Activity (MCF7 [6]): Active; inhibition [14]: Active; inhibition (MCF7 [22]): Active; Activity (MCF7 [24]): Active
COc1cccc2c1C(=O)c1c(O)c3c(c(O)c1C2=O)C[C@@](O)(C(=O)CO)C[C@@H]3O[C@H]1C[C@H](N)[C@H](O)[C@H](C)O1 [DOXORUBICIN]	2%	0.73 µM	31 µM	Active	–	Active	16%	0.1 µM	Active	–	0.16 µM	Active	Active	Active	–	0.14 µM	Active	0.37 µM	Active	82%	Activity (MCF7 [18]): Active; Activity (MDA-MB-231 [19]): inactive
COc1ccc(/C=C/c2nc3ccccc3c(=O)n2-c2ccc(C#Cc3ccc(C(C)(C)C)cc3)cc2C)cc1O	4%	5.74 µM	12 µM	Active	Active	Active	5%	3.88 µM	Active	0.84	5.69 µM	Active	Active	Active	0.27	6.8 µM	Active	5.19 µM	Active	91%	Activity (MCF7 [6]): Active; inhibition [14]: Active; inhibition (MCF7 [22]): Active; Activity (MCF7 [24]): Active
Cc1cc(C#Cc2ccc(C(C)(C)C)cc2)ccc1-n1c(/C=C/c2c(Cl)cccc2Cl)nc2ccccc2c1=O	2%	5.6 µM	15 µM	Active	Active	Active	5%	2.27 µM	Active	0.77	5.44 µM	Active	Active	Active	0.39	5.29 µM	Active	4.85 µM	Active	93%	Activity (MCF7 [4]): Active; Activity (MCF7 [6]): Active; inhibition [14]: Active; inhibition [15]: Active; Activity (MCF7 [18]): Active; Activity (MDA-MB-231 [19]): inactive; inhibition (MCF7 [22]): Active; Activity (MCF7 [24]): Active
COc1ccc2cc(C#Cc3ccc(-n4c(/C=C/c5ccnc6ccccc56)nc5ccccc5c4=O)c(C)c3)ccc2c1	7%	–	–	–	–	–	19%	–	–	0.76	–	–	–	–	0.5	–	–	–	–	74%	–
COc1ccc2cc(C#Cc3ccc(-n4c(/C=C/c5c(Cl)cccc5Cl)nc5ccccc5c4=O)c(C)c3)ccc2c1	8%	–	–	–	–	–	24%	–	–	0.77	–	–	–	–	0.63	–	–	–	–	68%	–
Cc1cc(C#Cc2ccc(C(C)(C)C)cc2)ccc1-n1c(/C=C/c2ccc3ccccc3c2)nc2ccccc2c1=O	8%	–	–	–	–	–	20%	–	–	0.92	–	–	–	–	0.61	–	–	–	–	72%	–
Cc1cc(C#Cc2ccc(C(C)(C)C)cc2)ccc1-n1c(/C=C/c2ccc([N+](=O)[O-])o2)nc2ccccc2c1=O	6%	–	–	–	–	–	17%	–	–	0.7	–	–	–	–	0.4	–	–	–	–	77%	–
Cc1cc(C#Cc2ccccc2)ccc1-n1c(/C=C/c2cc(O)cc(O)c2)nc2ccccc2c1=O	7%	–	–	–	–	–	10%	–	–	0.92	–	–	–	–	0.73	–	–	–	–	83%	–
COc1ccc2cc(C#Cc3ccc(-n4c(/C=C/c5ccc6ccccc6c5)nc5ccccc5c4=O)c(C)c3)ccc2c1	9%	–	–	–	–	–	22%	–	–	0.81	–	–	–	–	0.46	–	–	–	–	69%	–
COc1ccc2cc(C#Cc3ccc(-n4c(/C=C/c5ccc(F)cc5)nc5ccccc5c4=O)c(C)c3)ccc2c1	8%	–	–	–	–	–	18%	–	–	0.67	–	–	–	–	0.57	–	–	–	–	74%	–
Cc1cc(C#Cc2ccccc2)ccc1-n1c(/C=C/c2ccc(Cl)cc2)nc2ccccc2c1=O	7%	–	–	–	–	–	18%	–	–	0.74	–	–	–	–	0.48	–	–	–	–	75%	–
